Experiments:
[1] = system: NO production in BV2 microglial cell cultures treated with lipopolysachharide (LPS); test: Inhibition of NO production in LPS-treated BV2 microglial cell cultures; format: cell-based; details: BV2 cells
BV2 microglial cells = test: Cell viability assay; format: cell-based

Row | SMILES | anti-inflammatory potency compared to DFB (in words) [1] | BV2 cell toxicity / viability (in words) (BV2 microglial cells)
1 | O=C(Nc1ccccc1F)[C@H]1C[C@@H]1c1cccc(F)c1 (racemic) [Compound 1a, N-(2-fluorophenyl)-2-(3-fluorophenyl) cyclopropane-1-carboxamide] | decreased anti-inflammatory potency | 
2 | O=C(Nc1ccc(F)cc1)[C@H]1C[C@@H]1c1cccc(F)c1 (racemic) [Compound 1b] | decreased anti-inflammatory potency | 
3 | O=C(Nc1ccccc1Cl)[C@H]1C[C@@H]1c1cccc(F)c1 (racemic) [Compound 1c] | decreased anti-inflammatory potency | 
4 | COc1cc(Br)ccc1NC(=O)[C@H]1C[C@@H]1c1cccc(F)c1 (racemic) [Compound 1d, N-(4-Bromo-2-methoxyphenyl)-2-(3-fluorophenyl)cyclopropane-1-carboxamide] |  | excellent BV2 microglial cell viability
5 | O=C(Nc1nc2ccccc2s1)[C@H]1C[C@@H]1c1cccc(F)c1 (racemic) [Compound 1e, N-(Benzo[d]thiazol-2-yl)-2-(3-fluorophenyl)cyclopropane-1-carboxamide] | superior potency to DFB | 
6 | O=C(Nc1nc2ccccc2[nH]1)[C@H]1C[C@@H]1c1cccc(F)c1 (racemic) [Compound 1f, N-(1H-benzo[d]imidazol-2-yl)-2-(3-fluorophenyl)cyclopropane-1-carboxamide] | superior potency to DFB | 
7 | COc1cc(Br)ccc1NC(=O)[C@H]1C[C@@H]1c1cccc(Cl)c1 (racemic) [Compound 2d, N-(4-Bromo-2-methoxyphenyl)-2-(3-chlorophenyl)cyclopropane-1-carboxamide] | decreased potency | 
8 | O=C(Nc1nc2ccccc2[nH]1)[C@H]1C[C@@H]1c1cccc(Cl)c1 (racemic) [Compound 2f] | improved potency | 
9 | O=C(N[C@H]1C[C@@H]1c1cccc(F)c1)c1cccc(F)c1 (racemic) [Compound 3a, 3-fluoro-N-(2-(3-fluorophenyl)cyclopropyl)benzamide] |  | excellent cell viability
10 | O=C(N[C@H]1C[C@@H]1c1cccc(F)c1)c1cccc([N+](=O)[O-])c1 (racemic) [Compound 3c] |  | significant BV2 cell toxicity
11 | O=C(N[C@H]1C[C@@H]1c1cccc(F)c1)c1ccc([N+](=O)[O-])cc1 (racemic) [Compound 3d] |  | significant BV2 cell toxicity
